Experimental data as given in patent US20250002526A1, “PHARMACEUTICAL COMPOSITION HAVING ANTI-CANCER IMMUNOSTIMULATING EFFECT AND/OR IMMUNE CHECKPOINT INHIBITION POTENTIATING EFFECT” (KYUSHU UNIVERSITY, NATIONAL UNIVERSITY CORPORATION, priority 2021, published 2025).
“Also recorded” adds a separate entry of the source.

Tests used:
E0771-SULT cells = test: Trans-cancer migration assay (CCL21-induced T-cell migration); format: cell-based, mouse; conditions: E0771-SULT cells pretreated with cholenoic acid (5 μM)
Excerpt: FIG. 10 is a series of diagrams showing experimental results (6) in Experiment Example 1 (identification of cholenoic acid as a SULT2B1b inhibitor that promotes anti-tumor immunity). […] The data were acquired from two independent experiments, and expressed as mean±SD. * P<0.05; ** P<0.01 (one-way ANOVA followed by Dunnett's post-hoc test). The level of CCL21-induced T-cell migration in E0771-MOCK cells (CCL21+, SULT−) was used as a control for comparison. FIGS. 10B and 10C show results of enzyme kinetic analysis for SULT2B1b inhibition by cholenoic acid (3-OH-5-Chln). SULT2B1b protein (0.3 or 0.6 μM) was preincubated with cholenoic acid (20 or 40 μM) or a vehicle (2% DMSO), and reacted with cholesterol at different concentrations in the presence of 100 μM PAPS (FIG. 10B) or reacted with PAPS at different concentrations in the presence of 10 μM cholesterol (FIG. 10C). The data were fitted to the Michaelis-Menten equation (the left figures in FIGS. 10B and 10C), and their inhibition modes were analyzed with Lineweaver-Burk plots (right figures).
In carrying out the migration assay, T cells were loaded on E0771-MOCK cells (expressing only a vector; SULT−) or E0771-SULT cells (SULT+) seeded on Matrigel in an upper chamber.

E.G7-OVA-SULT cells = test: In vivo tumor growth of E.G7-OVA-SULT cells with OTI T cell transfer; set-up: species or system mouse; conditions: activated OTI T cells i.v. day 10, cholenoic acid oral days 13, 14 and 15
Method: In T cell transfer experiment, activated OTII CD4^+ T cells (2×10^6) and OTI CD8^+ T cells (5×10^5) were intravenously injected into tumor-bearing mice (see experimental results (4)).
Cholenoic acid was suspended in 0.5% (w/v) methylcellulose 400 solution (FUJIFILM Wako Pure Chemical Corporation) at a proportion of 50 mg/ml, and a 200-μl portion (10 mg) of the suspension was orally administered to mice (see experimental results (6)). To examine the effect on the tumor infiltration of OTII cells or OTI T cells, 5 mg of cholenoic acid was orally administered three times at intervals of 6 hours in 2 days before the assay.
CD4^+ T cells or CD8^+ T cells were magnetically selected from the spleen and peripheral lymph nodes of OTII and OTI TCR transgenic mice with Dynabeads mouse CD4 (Invitrogen), and then treated with DETACHaBEAD™ mouse CD4 (Invitrogen) or separated with a CD8a^+ T Cell Isolation Kit (Miltenyi Biotec). […]
The growth of tumors was monitored by measuring the vertical diameters of each tumor with a caliper twice a week and calculating the tumor volumes from the following expression.

C[C@H](CCC(=O)O)[C@H]1CC[C@H]2[C@@H]3CC=C4C[C@@H](O)CC[C@]4(C)[C@H]3CC[C@]12C [Compound 1, (R)-4-((3S,8S,9S,10R,13R,14S,17R)-3-hydroxy-10,13-dimethyl-2,3,4,7,8,9,10,11,12,13,14,15,16,17-tetradecahydro-1H-cyclopenta[a]phenanthren-17-yl)pentanoic acid] was tested, and the “CCL21-induced T-cell migration suppressed by E0771-SULT cells” value (E0771-SULT cells) was “suppression effect was not observed; also recorded: recovery” and the “growth of E.G7-OVA-SULT cells / anti-tumor immunity of OTI T cells” value (E.G7-OVA-SULT cells) was “recovery of the effect of OTII cell or OTI T cell transplantation; also recorded: the growth of E.G7-OVA-SULT cells was suppressed”.
